The structures appear in SMILES notation. In brackets after ≈: the same amount, converted by molar mass.

What is called NOAEL is the highest dose or exposure tested at which no adverse effect was seen.

One series concerns Canidae. To be noted: oral, Dog Other.
A further series concerns Encarsia formosa. To be noted: not reported; mortality.
The next series concerns Daphnia magna. The note with it: chronic/long-term; duration: 21 days; reproduction.
A further series relates to Colinus virginianus. The note with it: acute; oral; diet; mortality.
Another series relates to Anas platyrhynchos. The note with it: for LC50: short-term, oral, feed, mortality.
The next series has as its system Lepomis macrochirus. To be noted: acute; duration: 96 hours; mortality.
For the next series, the system named is Pimephales promelas. The note with it: chronic/long-term; duration: 31 days; growth.
The test system of a further series is Oncorhynchus mykiss. The note with it: acute; duration: 96 hours; mortality.
The subject of another series is Chalcophaps sp. To be noted: acute; oral; unspecified; mortality.
Another series has as its system Apis mellifera. To be noted: acute; duration: 48 hours; dermal; mortality.
The test system of another series is Perdix sp. The note with it: acute; oral; unspecified; mortality.
The test system of the next series is Phasianus sp. To be noted: acute; oral; unspecified; mortality.

Consider `CCCCc1c(C)nc(NCC)nc1OS(=O)(=O)N(C)C` [Bupirimate], for which the NOAEL in the series with Canidae (chronic, duration: 2 years) is 5 mg/kg-day; in the series on Canidae (subchronic, duration: 90 days) it was 15 mg/kg-day. In addition, the LEL with Encarsia formosa is 750 g/ha. Besides, the LD50 in the series with Rattus norvegicus (acute, oral, mortality) is 4000 mg/kg-day; in the series with Coturnix japonica (acute, oral, mortality), greater than 5000 mg/kg-day; in the series with Chalcophaps sp. it was greater than 2750 mg/kg-day; with Apis mellifera it was greater than 50 µg/piece. The NOEC is 0.56 mg/L with Daphnia magna, no less than 98 mg/kg-day in the series on Coturnix japonica (reproduction developmental), 7.3 mg/kg in the series with Tagia sp. (chronic/long-term) and 0.1 mg/L with Pimephales promelas. The LC50 in the series on Colinus virginianus is greater than 2580 mg/kg-day; in the series with Anas platyrhynchos, greater than 2090 mg/kg-day; with Lepomis macrochirus it was 1 µg/mL (≈ 3.16 µM); in the series with Tagia sp. (acute, duration: 14 days, mortality), greater than 1000 mg/kg; with Oncorhynchus mykiss, 1 µg/mL (≈ 3.16 µM).

On to `CCCCc1c(C)nc(NCC)[nH]c1=O` [Ethirimol], for which the NOAEL is 4000 mg/kg-day in the series on Rattus norvegicus (acute, neurology); 3.5 mg/kg-day with Rattus norvegicus (chronic, duration: 2 years, clinical signs); 5 mg/kg-day with Rattus norvegicus (reproduction developmental, body weight). The same molecule came in with an NOEL in the series with Rattus norvegicus (chronic, mortality) of 500 mg/kg-day. In addition, the LD50 in the series with Perdix sp. and with Phasianus sp. was greater than 3000 mg/kg-day each time. The LC50 in the series with Colinus virginianus is greater than 3380 mg/kg-day; with Anas platyrhynchos, greater than 1960 mg/kg-day. The molecule also yielded an NOEC in the series with Anas platyrhynchos (reproductive) of 58 mg/kg-day.

These data come from EPA's ToxValDB 9.5 (doi:10.2903/j.efsa.2010.1786).
